Results: US20100197789A1, “ANTI-OBESITY AGENT AND USE THEREOF” (National University Corporation Nagoya University, priority 2006, published 2010)

Assays:
Type in all cases: in vivo, mouse
db/db mice = assay: Blood glucose level, HbA1c and plasma hormone concentrations after 5-week administration, db/db mice; conditions: 1.1 and 2.7 mg/dl in drinking water
Protocol: 5 week-old male C57BL/KsJ-db/db mice (db/db mice: body weight 19 to 25 g, Japan SLC, Inc.) were purchased and individually fed in tip cages. For the db/db mice, normal pellet diet (CE-2) was administered under free water intake and free food intake. A body weight and a food intake amount over 24 hours were measured every day from the start of feeding. On day 3 after the start of feeding, blood was taken from an orbit after 6 hour-fasting and a blood glucose level and a blood insulin concentration were measured. The db/db mice were divided into three groups (10 mice per each group) so that a body weight, a 24 hour-food intake amount, a blood glucose level, and a blood insulin concentration were equal, and defined to be a control group, a low concentration baclofen treated group, and a high concentration baclofen treated group. After division into the groups, from day 5 after the start of feeding, (±)-baclofen was dissolved in drinking water and 5 week-continuous oral administration to the baclofen treated groups was started. (±)-baclofen was dissolved in drinking water at a concentration of 1.1 mg/dl in the low concentration treated group and at a concentration of 2.7 mg/dl in the high concentration treated group. A food intake amount and a body weight were measured over time during the period of 5 week-administration of (±)-baclofen, blood was taken after the end of the 5-week administration, and the db/db mice were sacrificed by cervical luxation. Brains, epididymal white adipose tissues, subcutaneous white adipose tissues and brown adipose tissues were surgically removed. The brains and brown adipose tissues were frozen in dry ice and liquid nitrogen immediately after the removal and then preserved at −80° C. The epididymal white adipose tissues and subcutaneous white adipose tissues were measured in weights, and then fixed in 4% formaldehyde and preserved at 4° C.
(§1) The blood glucose level was measured by a glucose analyzer Antisense (HORIBA, Ltd.) promptly after taking blood from an orbit. HbA1c was measured by a glycohemoglobin analyzer HLC-723 GHbV (manufactured by TOSOH Corporation) after preserving blood at −80° C.
(§2) After taking blood from an orbit by using a hematocrit tube coated with heparin, blood was centrifuged at 3500 rpm at 4° C. for 15 minutes, and plasma was preserved at −80° C. The plasma concentrations of insulin, leptin and adiponectin were measured by the ELISA method (levis insulin kit (mouse): Shibayagi Co., Ltd., Morinaga Leptin assay kit: Morinaga Institute of Biological Science, Inc., Mouse/rat adiponectin ELISA kit: OTSUKA Pharmaceutical Co., Ltd.).

DIO mice [1] = assay: Food intake amount and body weight, 5 week-continuous oral administration, diet-induced obese (DIO) mice; conditions: (±)-baclofen 5 mg/kg/day, SKF97541 0.3 mg/kg/day, 3-APPA 5 mg/kg/day
Protocol: 5 week-old male C57BL/6N mice (body weight 17 to 20 g, CLEA Japan, Inc.) were purchased and individually fed in tip cages. To the mice, normal pellet diet (CE-2) was administered under free water intake and free food intake. A body weight and a food intake amount over 24 hours were measured every day from the start of feeding. On day 3 after the start of feeding, blood was taken from an orbit after 6 hour-fasting and a blood glucose level and a blood insulin concentration were measured. The mice were divided into a control group and a baclofen treated group (10 mice per each group) so that a body weight, a 24 hour-food intake amount, a blood glucose level, and a blood insulin concentration were equal, and diet induced-obesity (DIO) was started to be induced by administration of high fat diet (High Fat Diet 32, energy fat ratio 60%, CLEA Japan, Inc.) (DIO mice). At the same time as the start of administering the high fat diet, (±)-baclofen was dissolved in drinking water and 5 week-continuous oral administration was started in a dosage of 5 mg per 1 kg of a body weight in 1 day (5 mg/kg/day). A food intake amount and a body weight were measured over time during the 5 week-administration period. (±)-baclofen (5 mg/kg/day) was orally administered also to C57BL/6N mice (lean mice) that are non-obese mice to which normal diet was administered in the same manner as described above, and a food intake amount and a body weight were measured over time.
5 week-old male C57BL/6N mice (body weight 17 to 20 g, CLEA Japan, Inc.) were purchased and individually fed in tip cages. Normal pellet diet (CE-2) was administered to the mice under free water intake and free food intake. A body weight and a food intake amount over 24 hours were measured every day from the start of feeding. On day 3 after the start of feeding, blood was taken from an orbit after 6 hour-fasting and a blood glucose level and a blood insulin concentration were measured. The mice were divided into a control group, an SKF97541 treated group and a 3-APPA treated group (10 mice per each group) so that a body weight, a 24 hour-food intake amount, a blood glucose level, and a blood insulin concentration were equal, and diet induced-obesity (DIO) was started to be induced by administration of high fat diet (High Fat Diet 32, energy fat ratio 60%, CLEA Japan, Inc.) (DIO mice). At the same time as the start of administering the high fat diet, SKF97541 (0.3 mg/kg/day) or 3-APPA (5 mg/kg/day) was dissolved in drinking water and 5 week-continuous oral administration was started. A food intake amount and a body weight were measured over time during the 5 week-administration period. SKF97541 (0.3 mg/kg/day) or 3-APPA (5 mg/kg/day) was orally administered also to C57BL/6N mice (lean mice) to which normal diet was administered in the same manner as described above, and a food intake amount and a body weight were measured over time.

DIO mice [2] = assay: Fasting blood glucose, HbA1c, blood insulin, plasma leptin and adiponectin after 5-week administration, DIO mice
Protocol: as §1, §2
(±)-baclofen (5 mg/kg/day), SKF97541 (0.3 mg/kg/day) or 3-APPA (5 mg/kg/day) was orally administered to DIO mice for 5 weeks according to the above described method, and then blood was taken from an orbit after 6 hour-fasting and a blood glucose level, an HbA1c value and a blood insulin concentration were measured.
(§3) (±)-baclofen (5 mg/kg/day) was orally administered to DIO mice for 5 weeks according to the above described method, and then, blood was taken from an orbit after 6 hour-fasting, and a plasma leptin concentration and a plasma adiponectin concentration were measured. The DIO mice were sacrificed by cervical luxation after the end of the 5-week administration, and then epididymal white adipose tissues and subcutaneous white adipose tissues were surgically removed, and after measuring the weights, they were fixed in 4% formaldehyde. The epididymal white adipose tissues were cut out to prepare a section with a thickness of 8 μm and subjected to Hematoxylin-Eosin stain (H-E stain) and a form (size) of a fat cell was examined by using an image analysis system, Neurolucida (MicroBrightField Japan, Inc.).

DIO mice [3] = assay: White adipose tissue weights and fat cell size, DIO mice; conditions: (±)-baclofen 5 mg/kg/day oral 5 weeks
Protocol: as §3

[4] = DIO mice (high fat diet), oral in drinking water 5 weeks
[5] = DIO mice, continued until 5 weeks
[6] = 6 hour-fasting after 5 weeks oral, (±)-baclofen 5, SKF97541 0.3, 3-APPA 5 mg/kg/day, vs control
[7] = (±)-baclofen 5 mg/kg/day oral 5 weeks, 6 hour-fasting

## NCC(CC(=O)O)c1ccc(Cl)cc1 (racemic) [(±)-baclofen, (RS)-4-amino-3-(4-chlorophenyl)butanoic acid]
db/db mice; after 5 week-administration
  blood adiponectin concentration: Significant increases
  blood leptin concentration: Significant increases
  fasting blood insulin level: No change
db/db mice; after administration for 5 weeks
  HbA1c value: Significant decreases
db/db mice; fasting for 6 hours, after 5 week-administration
  fasting blood glucose level: significant suppression
DIO mice [1]; [4]
  body weight increase: significantly suppressed
  food intake amount: significantly suppressed
DIO mice [1]; [5]
  time after start of administration from which body weight increase suppression was significant: 1 week
  time after start of administration from which food intake suppression was significant: 1 week
DIO mice [2]; [6]
  fasting blood glucose level: significant decreases
  fasting blood insulin concentration: significant decreases
DIO mice [2]; [7]
  plasma adiponectin concentration: significantly increased
  plasma leptin concentration: significantly decreased
DIO mice [2]; after 5 weeks oral, (±)-baclofen 5, SKF97541 0.3, 3-APPA 5 mg/kg/day, vs control
  HbA1c value: significant decreases
DIO mice [3]
  weight of epididymal white adipose tissues: significantly decreased
  weight of subcutaneous white adipose tissues: significantly decreased
DIO mice [3]; H-E stain
  size of a fat cell in the epididymal white adipose tissues: decreased
